Here are results for 29 molecules from patent US20080058330A1, “Compounds and Combinations Thereof for Inhibiting Beta-Amyloid Production and Methods of Use Thereof” (Roskamp Research LLC, priority 2006, published 2008).

The first data set deals with 7W WT APP751 CHO cells. The experiment in a line: Screening of dihydropyridine compounds (Maybridge), Aβ1-40 and Aβ1-42 ELISA (Example 2). Type of data set: cell-based, Chinese hamster. The conditions noted are these: 30 μM, 24 hours (FIG. 5A, 5B). The procedure: Dihydropyridine compounds were obtained from Maybridge (England). Each compound was dissolved in DMSO. 7W WT APP751 CHO cells overexpressing APP751 were plated into 96-well culture plates in 200 μL of culture medium. Each compound from the library was added to confluent cells to a final concentration of 30 μM. After 24 hours of treatment, culture medium was collected and dissolved 10-fold and 2-fold for measuring the level of Aβ1-40 and Aβ1-42, respectively. Aβ1-40 and Aβ1-42 were determined using commercially available ELISAs (Biosource, CA), following the recommendations of the manufacturer.
With `CCOC(=O)C1=C(C)NC(C)=C(C(=O)OCC)C1c1ccc(C)cc1` [JFD 03282, diethyl 2,6-dimethyl-4-(4-methylphenyl)-1,4-dihydropyridine-3,5-dicarboxylate], the “concentration of Aβ1-40 compared to controls” value was “significantly decreased”, the “concentration of Aβ1-42 compared to controls” value was “significantly decreased” and the “concentration of total β-amyloid (Aβ1-40+Aβ1-42) compared to controls” value is on record as “significantly decreased”.

Turning to `CCOC(=O)C1=C(C)NC(C)=C(C(=O)OCC)C1c1ccc(-c2ccccc2C(F)(F)F)o1` [RJC 03405, diethyl 2,6-dimethyl-4-{5-[2-(trifluoromethyl)phenyl]-2-furyl}-1,4-dihydro-3,5-pyridinedicarboxylate], the “concentration of Aβ1-40 compared to controls” value was “significantly decreased” and the “concentration of total β-amyloid (Aβ1-40+Aβ1-42) compared to controls” value is listed as “significantly decreased”. On to `CC1=C(C#N)C(c2ccc(Cl)c(Cl)c2)C(C#N)=C(C)N1` [JFD 03292, 4-(3,4-dichlorophenyl)-2,6-dimethyl-1,4-dihydropyridine-3,5-dicarbonitrile], for which the “concentration of Aβ1-40 compared to controls” value was “significantly decreased” and the “concentration of total β-amyloid (Aβ1-40+Aβ1-42) compared to controls” value is recorded as “significantly decreased”. On to `N#Cc1c(-c2cccs2)cc(-c2ccccc2)[nH]c1=O` [HTS 10306, 2-oxo-6-phenyl-4-(2-thienyl)-1,2-dihydro-3-pyridinecarbonitrile], for which the “concentration of Aβ1-40 compared to controls” value is on record as “significantly decreased”, the “concentration of Aβ1-42 compared to controls” value is “significantly decreased” and the “concentration of total β-amyloid (Aβ1-40+Aβ1-42) compared to controls” value is listed as “significantly decreased”. As to `CCOC(=O)C1=C(C)NC(C)=C(C(=O)OCC)C1c1ccc(Cl)c(Cl)c1` [JFD 03294, diethyl 4-(3,4-dichlorophenyl)-2,6-dimethyl-1,4-dihydropyridine-3,5-dicarboxylate], the “concentration of Aβ1-40 compared to controls” value is “significantly decreased”, the “concentration of Aβ1-42 compared to controls” value is reported as “significantly decreased” and the “concentration of total β-amyloid (Aβ1-40+Aβ1-42) compared to controls” value is given as “significantly decreased”. Turning to `O=C1CC(c2ccccc2)CC(=O)N1c1ccc(Oc2ccc(Cl)cc2)cc1` [PD 00463, 1-[4-(4-chlorophenoxy)phenyl]-4-phenyldihydropyridine-2,6(1H,3H)-dione], the “concentration of Aβ1-40 compared to controls” value is “significantly decreased”, the “concentration of Aβ1-42 compared to controls” value is recorded as “significantly decreased” and the “concentration of total β-amyloid (Aβ1-40+Aβ1-42) compared to controls” value is “significantly decreased”. For `CCOC(=O)C1=C(C)NC(C)=C(C(=O)OCC)C1c1ccc(-c2cc(C(F)(F)F)cc(C(F)(F)F)c2)o1` [CD 04170, diethyl 4-{5-[3,5-di(trifluoromethyl)phenyl]-2-furyl}-2,6-dimethyl-1,4-dihydro-pyridine-3,5-dicarboxylate], the “concentration of Aβ1-40 compared to controls” value was “significantly decreased”, the “concentration of Aβ1-42 compared to controls” value is “significantly decreased” and the “concentration of total β-amyloid (Aβ1-40+Aβ1-42) compared to controls” value is listed as “significantly decreased”. As to `CCOC(=O)C1=C(C)NC(C)=C(C(=O)OCC)C1c1ccc(Cl)cc1Cl` [RJC 03403, diethyl 4-(2,4-dichlorophenyl)-2,6-dimethyl-1,4-dihydro-3,5-pyridinedicarboxylate], the “concentration of Aβ1-40 compared to controls” value is recorded as “significantly decreased”, the “concentration of Aβ1-42 compared to controls” value is reported as “significantly decreased” and the “concentration of total β-amyloid (Aβ1-40+Aβ1-42) compared to controls” value is “significantly decreased”. `CCOC(=O)C1=C(C)NC(C)=C(C(=O)OCC)C1c1ccccc1Cl` [JFD 03305, diethyl 4-(2-chlorophenyl)-2,6-dimethyl-1,4-dihydropyridine-3,5-dicarboxylate]: the “concentration of Aβ1-40 compared to controls” value was “significantly decreased”, the “concentration of Aβ1-42 compared to controls” value is “significantly decreased” and the “concentration of total β-amyloid (Aβ1-40+Aβ1-42) compared to controls” value is listed as “significantly decreased”.

As for `COC(=O)C1=C(C)NC(C)=C(C(=O)OC)C1c1ccc(Cl)c(Cl)c1` [JFD 03293, dimethyl 4-(3,4-dichlorophenyl)-2,6-dimethyl-1,4-dihydropyridine-3,5-dicarboxylate], the “concentration of Aβ1-40 compared to controls” value was “significantly decreased”, the “concentration of Aβ1-42 compared to controls” value was “significantly decreased” and the “concentration of total β-amyloid (Aβ1-40+Aβ1-42) compared to controls” value is “significantly decreased”.

Tested on in a further data set: not given
Assay: not given
Settings: not given
What is called melting point is the temperature, or range, at which the solid turns liquid. Regarding `CCOC(=O)C1=C(C)NC(C)=C(C(=O)OC)C1c1ccccc1Cl` (centres unmarked) [Example 56, 3-Ethyl 5-methyl 4-(2-chlorophenyl)-1,4-dihydro-2,6-dimethylpyridine-3,5-dicarboxylate], the melting point was in the range of 125 to 127 °C. On to `CC1=C(C(=O)OC(C)(C)C)C(c2ccc(F)cc2)C(C(=O)OC(C)(C)C)=C(C)N1` [Example 52, Di-tert-butyl 4-(4-fluorophenyl)-1,4-dihydro-2,6-dimethylpyridine-3,5-dicarboxylate], for which the melting point lay within 149 to 150 °C. Molecule `CCOC(=O)C1=C(C)NC(C)=C(C(=O)OCC)C1c1c(Cl)cccc1Cl` [Example 36, Diethyl 4-(2,6-dichlorophenyl)-1,4-dihydro-2,6-dimethylpyridine-3,5-dicarboxylate] returned a melting point of 134 to 135 °C. As to `CC(=O)C1=C(C)NC(C)=C(C(C)=O)C1c1ccccc1Cl` [Example 7, 4-(2-Chlorophenyl)-1,4-dihydro-2,6-dimethylpyridine-3,5-di(2-ethanone)], the melting point was in the range of 196 to 197 °C. With `CC1=C(C(=O)OC(C)(C)C)C(c2ccccc2[N+](=O)[O-])C(C(=O)OC(C)(C)C)=C(C)N1` [Example 15, Di-tert-butyl 1,4-dihydro-2,6-dimethyl-4-(2-nitrophenyl)pyridine-3,5-dicarboxylate], the melting point is 159 to 161 °C. Molecule `CC1=C(C(=O)OC(C)(C)C)C(c2ccc(C)cc2C)C(C(=O)OC(C)(C)C)=C(C)N1` [Example 55, Di-tert-butyl 1,4-dihydro-2,6-dimethyl-4-(2,4-dimethylphenyl)pyridine-3,5-dicarboxylate] displayed a melting point of 197 to 198 °C. `CC1=C(C(=O)OC(C)(C)C)C(c2ccc(Cl)cc2)C(C(=O)OC(C)(C)C)=C(C)N1` [Example 23, Di-tert-butyl 4-(4-chlorophenyl)-1,4-dihydro-2,6-dimethylpyridine-3,5-dicarboxylate] came in with a melting point of 191.5 to 192.5 °C. Same read-out and setting: as for `CC1=C(C(=O)OC(C)(C)C)C(c2ccccc2I)C(C(=O)OC(C)(C)C)=C(C)N1` [Example 28, Di-tert-butyl 1,4-dihydro-4-(2-iodophenyl)-2,6-dimethylpyridine-3,5-dicarboxylate], the figure is 184 to 185 °C; as for `COCCOC(=O)C1=C(C)NC(C)=C(C(=O)OCCOC)C1c1cccc(Br)c1` [Example 45, Bis(2-methoxyethyl) 4-(3-bromophenyl)-1,4-dihydro-2,6-dimethylpyridine-3,5-dicarboxylate], 124.5 to 125.5 °C; as for `CCOC(=O)C1=C(C)NC(C)=C(C(=O)OCC)C1c1ccccc1Cl` [Example 6, Diethyl 4-(2-chlorophenyl)-1,4-dihydro-2,6-dimethylpyridine-3,5-dicarboxylate], 120 to 121 °C. Still for that read-out and setting: in the case of `CC1=C(C(=O)OC(C)(C)C)C(c2cccc(F)c2F)C(C(=O)OC(C)(C)C)=C(C)N1` [Example 39, Di-tert-butyl 4-(2,3-difluorophenyl)-1,4-dihydro-2,6-dimethylpyridine-3,5-dicarboxylate] it was 192 to 194 °C. With `CC1=C(C(=O)OC(C)(C)C)C(c2cccc(Cl)c2Cl)C(C(=O)OC(C)(C)C)=C(C)N1` [Example 32, Di-tert-butyl 4-(2,3-dichlorophenyl)-I14-dihydro-2,6-dimethylpyridine-3,5-dicarboxylate], the melting point is 144 to 145 °C.

With `COC(=O)C1=C(C)NC(C)=C(C(C)=O)C1c1ccccc1Cl` (centres unmarked) [Example 57, Methyl 5-acetyl-4-(2-chlorophenyl)-1,4-dihydro-2,6-dimethylpyridine-3-carboxylate], the melting point is 183 to 184 °C. Same read-out and setting: in the case of `CC1=C(C(=O)OC(C)(C)C)C(c2cccc(Br)c2)C(C(=O)OC(C)(C)C)=C(C)N1` [Example 25, Di-tert-butyl 4-(3-bromophenyl)-1,4-dihydro-2,6-dimethylpyridine-3,5-dicarboxylate] it was 195 to 196 °C; in that of `CCOC(=O)C1=C(C)NC(C)=C(C(=O)OCC)C1c1cccc(Br)c1` [Example 24, Diethyl 4-(3-bromophenyl)-1,4-dihydro-2,6-dimethylpyridine-3,5-dicarboxylate], 125 to 126 °C. `CC1=C(C(=O)OC(C)(C)C)C(c2cc(Cl)ccc2Cl)C(C(=O)OC(C)(C)C)=C(C)N1` [Example 35, Di-tert-butyl 4-(2,5-dichlorophenyl)-1,4-dihydro-2,6-dimethylpyridine-3,5-dicarboxylate] yielded a melting point of 181 to 183 °C. `CCOC(=O)C1=C(C)NC(C)=C(C(=O)OCC)C1c1ccc(F)cc1` [Example 51, Diethyl 4-(4-fluorophenyl)-1,4-dihydro-2,6-dimethylpyridine-3,5-dicarboxylate] gave a melting point of 150 to 151 °C.

As to `CCOC(=O)C1=C(C)NC(C)=C(C(=O)OCC)C1c1cc(Cl)ccc1Cl` [Example 34, Diethyl 4-(2,5-dichlorophenyl)-1,4-dihydro-2,6-dimethylpyridine-3,5-dicarboxylate], the melting point was in the range of 166.5 to 167.5 °C. The molecule `CC1=C(C(=O)OC(C)(C)C)C(c2cccc(Cl)c2)C(C(=O)OC(C)(C)C)=C(C)N1` [Example 21, Di-tert-butyl 4-(3-chlorophenyl)-1,4-dihydro-2,6-dimethylpyridine-3,5-dicarboxylate] had a melting point of 189.5 to 190.5 °C.
